Experimental data as given in patent publication US11191269B2, “Use of an acyclic picolinamide compound as a fungicide for fungal diseases on turfgrasses” (Dow AgroSciences LLC, priority 2017, dated 2021).

Tests used:
[1] = test system: Glomerella graminicola (COLLGR); experiment: Field assessment of Glomerella graminicola (COLLGR), anthracnose, on annual bluegrass; type: in vivo
[2] = test system: Sclerotinia homoeocarpa (SCLEHO); experiment: Field assessment of Sclerotinia homoeocarpa (SCLEHO), dollar spot, on creeping bentgrass; type: in vivo

COc1ccnc(C(=O)N[C@@H](C)C(=O)O[C@@H](C)C(c2ccc(F)cc2)c2ccc(F)cc2)c1OC(C)=O [Compound I, (S)-1,1-bis(4-fluorophenyl)propan-2-yl (3-acetoxy-4-methoxypicolinoyl)-L-alaninate]
Anthracnose control compared with commercial standard (in words) ([1]; 250 and 500 g ai/ha treatments, Poa annua): equivalent to the control provided by Velista
Anthracnose Infestation (% Visual) ([1]; 250 g ai/ha, 0 DAAA, Poa annua, percentage of plot infested): 22.1%
Anthracnose Infestation (% Visual) ([1]; 250 g ai/ha, 8 DAAA, Poa annua): 7%
Anthracnose Infestation (% Visual) ([1]; 250 g ai/ha, 10 DAAB, Poa annua): 22.1%
Anthracnose Infestation (% Visual) ([1]; 250 g ai/ha, 11 DAAC, Poa annua): 11.5%
Anthracnose Infestation (% Visual) ([1]; 250 g ai/ha, 14 DAAA, Poa annua): 7%
Anthracnose Infestation (% Visual) ([1]; 250 g ai/ha, 17 DAAB, Poa annua): 11.5%
Anthracnose Infestation (% Visual) ([1]; 250 g ai/ha, 17 DAAC, Poa annua): 22.1%
Anthracnose Infestation (% Visual) ([1]; 500 g ai/ha, 0 DAAA, Poa annua): 43.2%
Anthracnose Infestation (% Visual) ([1]; 500 g ai/ha, 8 DAAA, Poa annua): 9.2%
Anthracnose Infestation (% Visual) ([1]; 500 g ai/ha, 10 DAAB, Poa annua): 9.2%
Anthracnose Infestation (% Visual) ([1]; 500 g ai/ha, 11 DAAC, Poa annua): 11.5%
Anthracnose Infestation (% Visual) ([1]; 500 g ai/ha, 14 DAAA, Poa annua): 7%
Anthracnose Infestation (% Visual) ([1]; 500 g ai/ha, 17 DAAB, Poa annua): 11.5%
Anthracnose Infestation (% Visual) ([1]; 500 g ai/ha, 17 DAAC, Poa annua): 11.5%
Anthracnose disease control (in words) ([1]; formulations of Compound I, Poa annua putting greens): provided significant control of anthracnose disease
Dollar Spot Infestation (% Visual) ([2]; 250 g ai/ha, 0 DAAA, percentage of plot infested): 2.2%
Dollar Spot Infestation (% Visual) ([2]; 250 g ai/ha, 6 DAAC): 0.6%
Dollar Spot Infestation (% Visual) ([2]; 250 g ai/ha, 8 DAAA): 0.8%
Dollar Spot Infestation (% Visual) ([2]; 250 g ai/ha, 8 DAAB): 0.8%
Dollar Spot Infestation (% Visual) ([2]; 250 g ai/ha, 13 DAAB): 1.1%
Dollar Spot Infestation (% Visual) ([2]; 250 g ai/ha, 13 DAAC): 2.1%
Dollar Spot Infestation (% Visual) ([2]; 250 g ai/ha, 14 DAAA): 0.7%
Dollar Spot Infestation (% Visual) ([2]; 500 g ai/ha, 0 DAAA): 1.7%
Dollar Spot Infestation (% Visual) ([2]; 500 g ai/ha, 6 DAAC): 0.3%
Dollar Spot Infestation (% Visual) ([2]; 500 g ai/ha, 8 DAAA): 0.5%
Dollar Spot Infestation (% Visual) ([2]; 500 g ai/ha, 8 DAAB): 0.5%
Dollar Spot Infestation (% Visual) ([2]; 500 g ai/ha, 13 DAAB): 0.6%
Dollar Spot Infestation (% Visual) ([2]; 500 g ai/ha, 13 DAAC): 0.5%
Dollar Spot Infestation (% Visual) ([2]; 500 g ai/ha, 14 DAAA): 0.5%
Dollar spot control compared with commercial standards (in words) ([2]; Compound I applied at 500 g ai/ha): provided better control than Eagle 20EW and was equivalent to Xzemplar Fungicide
Dollar spot disease control (in words) ([2]; formulations of Compound I, observation period): significantly reduce dollar spot disease
